Patent US20260272900A1 (Bayer Aktiengesellschaft, priority 2024, published 2026)

System: patients with heart failure and left ventricular ejection fraction ≥40% (HFmrEF/HFpEF)
Type: in vivo
Conditions: bilirubin Tertile 1 ≤0.4 mg/dL; N = 957

For CCOc1ncc(C)c2c1[C@H](c1ccc(C#N)cc1OC)C(C(N)=O)=C(C)N2 [finerenone, (4S)-4-(4-cyano-2-methoxyphenyl)-5-ethoxy-2,8-dimethyl-1,4-dihydro-1,6-naphthyridine-3-carboxamide], the “Total worsening HF events, event rate” value was 12.4 per 100 PY.
